Where “and” joins values, the source holds several entries; their conditions need not be identical. Identical values can stand only once.
System: BDF1 mice, Adenocarcinoma 755 s.c., tumor weight T/C
Test: NCI In Vivo Anticancer Drug Screen. Data for tumor model Adenocarcinoma 755 (subcutaneous) in B6D2F1 (BDF1) mice
Conditions: endpoint: mean tumor weight, higher = larger tumour
Protocol: The antitumor activity of compounds was measured in mice bearing transplantable tumors. Survival or tumor size were measured and the results are expressed as the measurement made in the treated group (T) divided by the measurement made in the vehicle treated control group (C). The tumor model used in this assay is Adenocarcinoma 755 (subcutaneous) in B6D2F1 (BDF1) mice

## Cc1cc(Nc2cccc(Cl)c2)nc(N)n1
dose: 15.0 mg/kg/injection, schedule: Q01DX011 (ip), vehicle: methylcellulose (MC)
  T/C: 114 % of control
dose: 31.0 mg/kg/injection, schedule: Q01DX011 (ip), vehicle: methylcellulose (MC)
  T/C: 56 % of control

## O=[As]O
dose: 0.12 mg/kg/injection, schedule: Q01DX011 (ip), vehicle: carboxymethylcellulose (CMC)
  T/C: 116 % of control
dose: 0.25 mg/kg/injection, schedule: Q01DX011 (ip), vehicle: carboxymethylcellulose (CMC)
  T/C: 86 % of control
dose: 0.5 mg/kg/injection, schedule: Q01DX011 (ip), vehicle: carboxymethylcellulose (CMC)
  T/C: 98 % of control
dose: 1.0 mg/kg/injection, schedule: Q01DX011 (ip), vehicle: carboxymethylcellulose (CMC)
  T/C: 77 % of control
dose: 1.63 mg/kg/injection, schedule: Q01DX011 (ip), vehicle: carboxymethylcellulose (CMC)
  T/C: 70 % of control
dose: 2.0 mg/kg/injection, schedule: Q01DX011 (ip), vehicle: carboxymethylcellulose (CMC)
  T/C: 19 % of control
dose: 2.0 mg/kg/injection, schedule: Q01DX011 (ip), vehicle: methylcellulose (MC)
  T/C: 66 % of control
dose: 3.15 mg/kg/injection, schedule: Q01DX011 (ip), vehicle: carboxymethylcellulose (CMC)
  T/C: 124 % of control
dose: 3.25 mg/kg/injection, schedule: Q01DX011 (ip), vehicle: carboxymethylcellulose (CMC)
  T/C: 72 % of control
dose: 5.0 mg/kg/injection, schedule: Q01DX011 (ip), vehicle: carboxymethylcellulose (CMC)
  T/C: 21 % of control
dose: 5.0 mg/kg/injection, schedule: Q01DX011 (ip), vehicle: methylcellulose (MC)
  T/C: 52 % of control
dose: 6.3 mg/kg/injection, schedule: Q01DX011 (ip), vehicle: carboxymethylcellulose (CMC)
  T/C: 67 % of control
dose: 8.66 mg/kg/injection, schedule: Q01DX011 (ip), vehicle: carboxymethylcellulose (CMC)
  T/C: 63 % of control and 70 % of control
dose: 12.6 mg/kg/injection, schedule: Q01DX011 (ip), vehicle: carboxymethylcellulose (CMC)
  T/C: 67 % of control
dose: 13.0 mg/kg/injection, schedule: Q01DX011 (ip), vehicle: carboxymethylcellulose (CMC)
  T/C: 28 % of control and 35 % of control

## CC(=O)[C@H]1CC[C@H]2[C@@H]3CCC4=CC(=O)[C@H](C)C[C@]4(C)[C@@]3(F)C(=O)C[C@]12C
dose: 1.5 mg/kg/injection, schedule: Q01DX011 (sc), vehicle: steriod suspending solution
  T/C: 120 % of control
dose: 3.12 mg/kg/injection, schedule: Q01DX011 (sc), vehicle: steriod suspending solution
  T/C: 77 % of control
dose: 6.0 mg/kg/injection, schedule: Q01DX011 (sc), vehicle: steriod suspending solution
  T/C: 69 % of control
dose: 6.25 mg/kg/injection, schedule: Q01DX011 (sc), vehicle: steriod suspending solution
  T/C: 79 % of control
dose: 12.0 mg/kg/injection, schedule: Q01DX011 (sc), vehicle: steriod suspending solution
  T/C: 36 % of control and 56 % of control
dose: 12.5 mg/kg/injection, schedule: Q01DX011 (sc), vehicle: steriod suspending solution
  T/C: 79 % of control
dose: 25.0 mg/kg/injection, schedule: Q01DX011 (sc), vehicle: steriod suspending solution
  T/C: 36 % of control and 47 % of control and 58 % of control
dose: 50.0 mg/kg/injection, schedule: Q01DX011 (sc), vehicle: steriod suspending solution
  T/C: 33 % of control and 39 % of control
dose: 51.0 mg/kg/injection, schedule: Q01DX011 (sc), vehicle: steriod suspending solution
  T/C: 21 % of control
dose: 75.0 mg/kg/injection, schedule: Q01DX011 (sc), vehicle: steriod suspending solution
  T/C: 21 % of control
dose: 100.0 mg/kg/injection, schedule: Q01DX011 (sc), vehicle: steriod suspending solution
  T/C: 9 % of control and 16 % of control and 22 % of control
dose: 200.0 mg/kg/injection, schedule: Q01DX011 (sc), vehicle: steriod suspending solution
  T/C: 6 % of control and 14 % of control

## O=c1cn[nH]c(=O)[nH]1
dose: 110.1 mg/kg/injection, schedule: Q01DX011 (ip), vehicle: carboxymethylcellulose (CMC)
  T/C: 104 % of control
dose: 125.0 mg/kg/injection, schedule: Q01DX011 (ip), vehicle: carboxymethylcellulose (CMC)
  T/C: 66 % of control
dose: 220.2 mg/kg/injection, schedule: Q01DX011 (ip), vehicle: carboxymethylcellulose (CMC)
  T/C: 80 % of control
dose: 250.0 mg/kg/injection, schedule: Q01DX011 (ip), vehicle: carboxymethylcellulose (CMC)
  T/C: 107 % of control
dose: 440.4 mg/kg/injection, schedule: Q01DX011 (ip), vehicle: carboxymethylcellulose (CMC)
  T/C: 84 % of control
dose: 500.0 mg/kg/injection, schedule: Q01DX011 (ip), vehicle: carboxymethylcellulose (CMC)
  T/C: 87 % of control
dose: 880.8 mg/kg/injection, schedule: Q01DX011 (ip), vehicle: carboxymethylcellulose (CMC)
  T/C: 77 % of control
dose: 1000.0 mg/kg/injection, schedule: Q01DX011 (ip), vehicle: carboxymethylcellulose (CMC)
  T/C: 80 % of control

## NC(=O)CCl
dose: 25.0 mg/kg/injection, schedule: Q01DX011 (ip), vehicle: other
  T/C: 91 % of control
dose: 50.0 mg/kg/injection, schedule: Q01DX011 (ip), vehicle: other
  T/C: 64 % of control

Reference: PubChem BioAssay AID180 (DTP/NCI, 2004)
